Columns and labels:
neurons = neurons grown on surface; cited from earlier work
[1] = tested on: human aortic endothelial cells (HAEC); experiment: HAEC proliferation and competition assays with soluble peptide motifs; assay type: cell-based; details: 100% RAD16-I, no soluble peptide, improved cell isolation
Protocol: (§1) Meanwhile, human aortic endothelial cells (HAEC) (CC-2535, Cambrex, MD) that had been maintained under standard culture conditions (passage 5-6) were harvested at 80% confluence using trypsin and loaded on top of the preformed peptide scaffolds at a cell density of 8×10^4 cells/cm^2 and cultured in the cell culture incubator at 37° C. with 5% CO2. Cell attachment assays were performed one hour after the initial cell loading. To perform the assays, the covering media was removed, and unattached cells were counted on a hematocytometer. Cell counting was performed by mechanically disrupting the scaffold containing cells by pipetting up and down and then counting cells on a hematocytometer after performing Trypan blue (T 9906, Sigma, MO) exclusion assay staining to assess cell viability. In some experiments, for comparison, EC were cultured on inserts coated with Matrigel or collagen (1.5 mg/ml, i.e. 0.15%) according to standard protocols.
Competition assays with free soluble peptide sequences. HAEC were cultured as described on peptide scaffolds in cell culture inserts as described above. For each scaffold, the corresponding soluble motif sequence, or one of the other motifs not present in the scaffold, was added to the media of HAEC cultures at a final concentration of 400 μg/ml. Half of the media was changed every other day. […] The next day, cell numbers were evaluated as described above. […]

[2] = tested on: human aortic endothelial cells (HAEC); experiment: HAEC monolayer formation on peptide scaffolds; assay type: cell-based; parameters: key to HAEC monolayer formation, peptide content 100% / HAEC monolayer formation, Blending (9:1): +: Score for optimal monolayer formation and cell survival; −: Score for poor or none monolayer formation and cell survival
Protocol: Endothelial cell culture system. Peptide scaffolds (0.5% w/v) were prepared at 100% peptide sequence for RAD16-I or blended with RAD16-I at a radio of 9:1 (RAD16-I: peptide sequence, on a volume/volume basis) for the three other cases (YIG, RYV, and TAG). Each solution was filtered (0.2 μm, Acrodysc filters, 4192, PALL, MI), loaded (30 μl) on top of a cell culture chamber insert (10 mm diameter, 136935, Nalge Nunc International, IL), and allowed to form a layer (average thickness=600 μm). Phosphate Buffer Saline (PBS) (600 μl) was added at the bottom of the well to induce hydrogel formation, and the system was incubated at room temperature for 30 min. PBS was replaced with culture medium, which was then replaced with fresh medium. The scaffolds were incubated for 1 hour with endothelial cell growth media (EGM-2, Cambrex, MD) in a cell culture incubator at 37° C. with 5% CO2.
as §1
In a first experiment, we tested the ability of HAEC to attach and form a monolayer when seeded on various peptide scaffolds generated by self-assembly of the peptides following addition of PBS to a 0.5%(w/v) solution of the peptide in water. […] HAEC cultured in the presence of scaffolds generated from peptides incorporating the other biologically active peptide motifs either died or formed isolated clusters (FIGS. 9A-9G).
We therefore decided to blend the peptides incorporating biologically active motifs with the prototypic RAD16-I sequence in order to reduce the overall concentration of the biologically active motif presented to cells. We selected a volume/volume ratio of 9:1 (RAD16-I:modified peptide sequence comprising biologically active peptide motif, where peptides were dissolved at equal concentrations on a w/w basis) and generated peptide scaffolds from solutions in which the unmodified and modified peptides were present in this ratio.

CC(=O)N[C@@H](CCCNC(=N)N)C(=O)N[C@@H](C)C(=O)N[C@@H](CC(=O)O)C(=O)N[C@@H](C)C(=O)N[C@@H](CCCNC(=N)N)C(=O)N[C@@H](C)C(=O)N[C@@H](CC(=O)O)C(=O)N[C@@H](C)C(=O)N[C@@H](CCCNC(=N)N)C(=O)N[C@@H](C)C(=O)N[C@@H](CC(=O)O)C(=O)N[C@@H](C)C(=O)N[C@@H](CCCNC(=N)N)C(=O)N[C@@H](C)C(=O)N[C@@H](CC(=O)O)C(=O)N[C@@H](C)C(N)=O [RAD16-I, AcN-(RADA)4-CONH2]
neurite outgrowth and synapse formation on peptide structure (neurons): able to serve as a substrate for neurite outgrowth and formation of functionally active synapses
HAEC proliferation lower than on scaffolds made from peptide blends [1]: 2-2.5 fold
HAEC monolayer formation, scaffold of 100% peptide ([2]; 0.5% (w/v) peptide, no blending): monolayer formation was observed
HAEC monolayer formation and cobblestone morphology on gel systems ([2]; after 3 days in culture): less than on blended scaffolds or on Matrigel or collagen-I
HAEC monolayer formation, peptide content 100% ([2]; scaffold of 100% peptide, 0.5% (w/v)): +¶

From patent publication US7713923B2, “Self-assembling peptides incorporating modifications and methods of use thereof” (Massachusetts Institute of Technology, priority 2003, dated 2010)
